# Data as given in article PMC4604124, “In Vitro Characterization of the Pharmacological Properties of the Anti-Cancer Chelator, Bp4eT, and Its Phase I Metabolites” (PLoS ONE, 2015).
# Several values for one entry are separate records, joined by “and”; a condition that tells them apart may be missing. Equal entries are not always repeated. Where two headings read alike, the source gives them in different places.
# Legend:
# MCF-7 cells = assay: Cell cycle analysis by flow cytometry (propidium iodide); type: cell-based, human; settings: 0.1 μM, 72 h, control 33%
# Method: To examine the effect of the agents on the cell cycle, MCF-7 cells were seeded in 60 mm Petri dishes at a density of 240,000 cells/dish and incubated with Bp4eT or its metabolites for 72 h/37°C. The cells were then harvested, fixed by ethanol and stained by propidium iodide (Molecular Probes, Eugene, OR, USA) for 30 min/37°C, as described previously. Cells were analyzed using Accuri C6 flow cytometer (Becton Dickinson and Company, San Jose, CA USA). Propidium iodide was excited at λex = 488 nm and fluorescence analyzed at λem = 585 nm (FL-2) with a total of 10,000 events collected per analysis.
# (§1) SigmaStat for Windows 3.5 (Systat Software, San Jose, CA, USA) statistical software package was utilized to analyze results. The data are expressed as the mean ± SD of a given number of experiments. Statistical significance was determined using a one-way ANOVA with a Bonferroni post-hoc test or Student’s t-test. The results were considered to be statistically significant when p < 0.05. The IC50 values were calculated using CalcuSyn 2.0 software (Biosoft, Cambridge, UK). Cell cycle analysis was evaluated using MultiCycle AV Software (Phoenix Flow Systems, San Diego, CA, USA).
# [1] = MTT cytotoxicity assay, 3T3 cells; type: cell-based, mouse; settings: mouse, 3T3 mouse embryo fibroblasts, 3T3, 10 000 b/j; for viability at 72 h, 3 nM: koncentrace 3 nM; for viability at 72 h, 10 nM: koncentrace 10 nM; for viability at 72 h, 30 nM: koncentrace 30 nM; for viability at 72 h, 100 nM: koncentrace 100 nM; for viability at 72 h, 300 nM: koncentrace 300 nM; for viability at 72 h, 1000 nM: koncentrace 1000 nM; for viability at 72 h, 3000 nM: koncentrace 3000 nM
# Summary of the method: (§2)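 Non-cancerous 3T3 mouse embryo fibroblasts were plated at 10,000 cells/well in 96-well plates and cultured for 24 h/37°C. The medium was then replaced with serum- and pyruvate-free DMEM for a further 24 h/37°C. Cells were exposed to agents for 72 h/37°C with 0.1% DMSO present, and viability was measured by MTT.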
# [2] = test system: 3T3 mouse embryo fibroblasts; assay: MTT cytotoxicity assay, 3T3 cells; type: cell-based; settings: for IC50: MTT
# Summary of the method: as §2
# [3] = test system: MCF-7 human breast adenocarcinoma cells; assay: MTT cytotoxicity assay, MCF-7 cells; type: cell-based; settings: for IC50: MTT
# Method: For cytotoxicity experiments, cancer cells were seeded at a density of 5,000 (MCF-7), 10,000 (HL-60) or 2,000 cells/well (HCT116 and A549) in 96-well plates (TPP) for 24 h/37°C prior to the addition of examined agents. The non-cancerous cells, 3T3 and H9c2 cells, were cultured for 24 h/37°C in 96-well plates at a density of 10,000 cells/well, the medium was then changed to serum- and pyruvate-free DMEM (Sigma-Aldrich) and incubated with the cells for another 24 h/37°C. The cytotoxic effects of Bp4eT and its metabolites were studied at different concentrations after a 72 h/37°C incubation. In order to aid the dissolution of the lipophilic ligands, 0.1% dimethyl sulfoxide (v/v) (DMSO; Sigma-Aldrich) was present in the culture medium of all groups. At this concentration, DMSO had no effect on cellular proliferation or viability.
# The viability of cells were determined using an MTT assay (Sigma-Aldrich) according to previously established methods. The optical density of soluble MTT was measured at λ = 570 nm, subtracting the λ = 690 nm background using a Tecan Infinite 200M plate reader (Tecan Group, Männedorf, Switzerland). The viability or proliferation of experimental groups was expressed as a percentage of the untreated controls (100%).
# as §1
# [4] = individual experiments, read-out: MTT viability (0 = 100)
# [5] = mean, read-out: MTT viability (0 = 100), průměr
compound,measurement,setting,value
"CCNC(=S)NN=C(c1ccccc1)c1ccccn1 [Bp4eT, 2-benzoylpyridine 4-ethyl-3-thiosemicarbazone]",Percentage of cells in the G2/M phase,MCF-7 cells,12%
same,"viability at 72 h, 3 nM",[1]; [4],101%
same,"viability at 72 h, 3 nM",[1]; [5],102%
same,"viability at 72 h, 10 nM",[1]; [4],93.7%
same,"viability at 72 h, 10 nM",[1]; [5],98.6%
same,"viability at 72 h, 30 nM",[1]; [4],89%
same,"viability at 72 h, 30 nM",[1]; [5],91.5%
same,"viability at 72 h, 100 nM",[1]; [4],75.4%
same,"viability at 72 h, 100 nM",[1]; [5],72.8%
same,"viability at 72 h, 300 nM",[1]; [4],72.4%
same,"viability at 72 h, 300 nM",[1]; [5],69.4%
same,"viability at 72 h, 1000 nM",[1]; [4],49.5%
same,"viability at 72 h, 1000 nM",[1]; [5],56.6%
same,"viability at 72 h, 3000 nM",[1]; [4],32.5%
same,"viability at 72 h, 3000 nM",[1]; [5],40.5%
same,IC50,"[2]; 3T3, 10 000 b/j, individual experiments, read-out: IC50",1080 nM and 1700 nM and 1480 nM
same,MTT viability (0 = 100),"[2]; 3T3, 10 000 b/j, koncentrace 3 nM, individual experiments",107.858 and 101.159 and 95.977
same,MTT viability (0 = 100),"[2]; 3T3, 10 000 b/j, koncentrace 10 nM, individual experiments",95.2009 and 97.9751 and 101.968 and 103.897
same,MTT viability (0 = 100),"[2]; 3T3, 10 000 b/j, koncentrace 30 nM, individual experiments",82.5017 and 95.1437 and 97.4935 and 93.6042
same,MTT viability (0 = 100),"[2]; 3T3, 10 000 b/j, koncentrace 100 nM, individual experiments",72.3252 and 75.1668 and 68.1869
same,MTT viability (0 = 100),"[2]; 3T3, 10 000 b/j, koncentrace 300 nM, individual experiments",69.1649 and 63.247 and 72.6411
same,MTT viability (0 = 100),"[2]; 3T3, 10 000 b/j, koncentrace 1000 nM, individual experiments",57.0662 and 64.2452 and 55.7111
same,MTT viability (0 = 100),"[2]; 3T3, 10 000 b/j, koncentrace 3000 nM, individual experiments",36.2815 and 49.6279 and 43.6868
same,IC50,"[2]; Mus musculus, Fibroblast, 3T3, 10 000 b/j, individual experiments, read-out: IC50",977 nM
same,IC50,"[2]; Mus musculus, Fibroblast, 3T3, 10 000 b/j, mean, read-out: IC50, průměr",1310 nM
same,IC50,"[2]; Mus musculus, Fibroblast, 72 h, 3T3, 72 h/37°C, mean ± SD, n ≥ 4, read-out: IC50",1310 ± 337 nM
same,"MCF-7 proliferation, % of the control","[3]; 0.1 μM, 72 h",27%
same,"Therapeutic index, IC50 non-cancerous cells / IC50 neoplastic cells",[3]; 3T3/MCF-7,87.3
same,"Therapeutic index, IC50 non-cancerous cells / IC50 neoplastic cells",[3]; H9c2/MCF-7,34.9
same,IC50,"[3]; Homo sapiens, MCF7, 72 h, MCF-7, 72 h/37°C, mean ± SD, n ≥ 4, read-out: IC50",15 ± 2 nM
same,IC50,"[3]; Homo sapiens, MCF7, MCF-7, 5 000 b/j, průměr (mean), read-out: IC50 měřené",14.6 nM
same,IC50,"[3]; Homo sapiens, MCF7, MCF-7, 5 000 b/j, single experiment (date), read-out: IC50 měřené",14.6 nM
same,"MTT, relative to control (0 = 100)","[3]; MCF-7, 5 000 b/j, 0.1 nM, průměr (mean)",96.38
same,"MTT, relative to control (0 = 100)","[3]; MCF-7, 5 000 b/j, 0.1 nM, single experiment (date)",88.7924 and 103.938 and 95.2002 and 101.937 and 92.0538
same,"MTT, relative to control (0 = 100)","[3]; MCF-7, 5 000 b/j, 0.3 nM, průměr (mean)",88.87
same,"MTT, relative to control (0 = 100)","[3]; MCF-7, 5 000 b/j, 0.3 nM, single experiment (date)",99.7305 and 86.2923 and 86.9644 and 82.4877
same,"MTT, relative to control (0 = 100)","[3]; MCF-7, 5 000 b/j, 1 nM, průměr (mean)",87.17
same,"MTT, relative to control (0 = 100)","[3]; MCF-7, 5 000 b/j, 1 nM, single experiment (date)",87.1761 and 96.2311 and 86.4816 and 83.9319 and 82.0349
same,"MTT, relative to control (0 = 100)","[3]; MCF-7, 5 000 b/j, 3 nM, průměr (mean)",84.98
same,"MTT, relative to control (0 = 100)","[3]; MCF-7, 5 000 b/j, 3 nM, single experiment (date)",92.03 and 87.788 and 84.0816 and 76.0316
same,"MTT, relative to control (0 = 100)","[3]; MCF-7, 5 000 b/j, 10 nM, průměr (mean)",59.89
same,"MTT, relative to control (0 = 100)","[3]; MCF-7, 5 000 b/j, 10 nM, single experiment (date)",58.817 and 55.8764 and 63.7331 and 67.2949 and 53.713
same,"MTT, relative to control (0 = 100)","[3]; MCF-7, 5 000 b/j, 30 nM, průměr (mean)",30.78
same,"MTT, relative to control (0 = 100)","[3]; MCF-7, 5 000 b/j, 30 nM, single experiment (date)",29.4154 and 32.9782 and 31.8134 and 28.9002
same,"MTT, relative to control (0 = 100)","[3]; MCF-7, 5 000 b/j, 100 nM, průměr (mean)",27.09
same,"MTT, relative to control (0 = 100)","[3]; MCF-7, 5 000 b/j, 100 nM, single experiment (date)",33.1607 and 22.627 and 26.6274 and 27.398 and 25.6334
same,IC50,"[3]; MCF-7, 5 000 b/j, single experiment (date), read-out: IC50 měřené",16.3 nM and 16.2 nM and 11.2 nM
